Measurements: patent US20260035364A1, “BICYCLIC TETRAHYDROTHIAZEPINE DERIVATIVES” (Hoffmann-La Roche Inc., priority 2022, published 2026)
Where two headings read alike, the source gives them in different places.

Key:
primary human T-cells = test: T-cell proliferation assay (CellTiter-Glo); assay type: cell-based; conditions: CD3 condition; for Emax / Emax proliferation (% activation): 5 days, 20 μM reference compound A1 = 100%; for Emax: read-out: Emax proliferation (% activation); for EC50: proliferation after 5 days, CellTiter-Glo, read-out: Tcell Proliferation CD3 EC50
Method in brief: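 Expanded primary human T-cells (100k/well) on plates coated with CD3 antibody or PBS only, given a 5- or 6-point dose response (top 20 or 10 μM final, 3.333-fold steps, 0.2% DMSO). ATP measured by CellTiter-Glo 2.0 luminescence after 5 days. Normalized to DMSO and 20 μM reference A1 (100%); EC50 and Emax reported for CD3 conditions.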

DGKzeta = DGKzeta (Homo sapiens, UniProt Q13574); test: In vitro DGK inhibition assay (ADP-Glo, liposomes), DGKzeta; assay type: biochemical; set-up: hDGKzeta(1-928)-N-His; His (N); made in house; host or cells: Sf21 insect cells (baculovirus); conditions: 2 nM DGK ζ, 50 μM ATP, 125 uM DLG in liposomes, 1 hour reaction
DGKzeta, sequence (Q13574 whole entry): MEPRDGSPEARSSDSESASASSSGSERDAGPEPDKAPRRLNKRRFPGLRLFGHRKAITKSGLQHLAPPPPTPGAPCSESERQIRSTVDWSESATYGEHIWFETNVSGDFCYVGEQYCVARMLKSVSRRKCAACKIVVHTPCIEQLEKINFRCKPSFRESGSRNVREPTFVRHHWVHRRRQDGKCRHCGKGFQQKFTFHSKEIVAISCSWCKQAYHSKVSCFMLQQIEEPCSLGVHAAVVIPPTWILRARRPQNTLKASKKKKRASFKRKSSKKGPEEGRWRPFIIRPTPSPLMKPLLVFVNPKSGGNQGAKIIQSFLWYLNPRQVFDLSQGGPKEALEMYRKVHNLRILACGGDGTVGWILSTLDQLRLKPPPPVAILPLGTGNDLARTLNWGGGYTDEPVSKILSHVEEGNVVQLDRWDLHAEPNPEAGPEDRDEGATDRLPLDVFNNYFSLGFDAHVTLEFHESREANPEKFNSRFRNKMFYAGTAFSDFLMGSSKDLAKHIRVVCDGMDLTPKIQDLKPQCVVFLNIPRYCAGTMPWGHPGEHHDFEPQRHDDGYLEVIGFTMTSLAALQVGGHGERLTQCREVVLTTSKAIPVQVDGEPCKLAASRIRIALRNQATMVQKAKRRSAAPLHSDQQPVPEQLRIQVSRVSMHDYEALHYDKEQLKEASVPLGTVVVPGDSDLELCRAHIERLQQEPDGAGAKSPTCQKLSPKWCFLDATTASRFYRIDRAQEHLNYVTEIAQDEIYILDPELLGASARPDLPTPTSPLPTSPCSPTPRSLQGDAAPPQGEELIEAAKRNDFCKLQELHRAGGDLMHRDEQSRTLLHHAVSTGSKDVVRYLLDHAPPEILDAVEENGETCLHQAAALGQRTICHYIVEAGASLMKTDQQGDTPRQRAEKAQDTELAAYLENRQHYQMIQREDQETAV
Method in brief: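 DGKζ (2 nM) phosphorylated DLG presented in DLG/PS/PC liposomes (final DLG 125 μM) with 50 μM ATP for 1 hour. ADP formed was read by ADP-Glo luminescence. Compounds were tested as 11-point 1:3 dose responses in 2% final DMSO.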

DGKalpha = DGKalpha (Homo sapiens, UniProt P23743); test: In vitro DGK inhibition assay (ADP-Glo, liposomes), DGKalpha; assay type: biochemical; set-up: hDGKalpha(1-735)-N-His; His (N); made in house; host or cells: Sf21 insect cells (baculovirus); conditions: 4 nM DGK α, 25 μM ATP, 125 uM DLG in liposomes, 1 hour reaction
DGKalpha, sequence (P23743 whole entry): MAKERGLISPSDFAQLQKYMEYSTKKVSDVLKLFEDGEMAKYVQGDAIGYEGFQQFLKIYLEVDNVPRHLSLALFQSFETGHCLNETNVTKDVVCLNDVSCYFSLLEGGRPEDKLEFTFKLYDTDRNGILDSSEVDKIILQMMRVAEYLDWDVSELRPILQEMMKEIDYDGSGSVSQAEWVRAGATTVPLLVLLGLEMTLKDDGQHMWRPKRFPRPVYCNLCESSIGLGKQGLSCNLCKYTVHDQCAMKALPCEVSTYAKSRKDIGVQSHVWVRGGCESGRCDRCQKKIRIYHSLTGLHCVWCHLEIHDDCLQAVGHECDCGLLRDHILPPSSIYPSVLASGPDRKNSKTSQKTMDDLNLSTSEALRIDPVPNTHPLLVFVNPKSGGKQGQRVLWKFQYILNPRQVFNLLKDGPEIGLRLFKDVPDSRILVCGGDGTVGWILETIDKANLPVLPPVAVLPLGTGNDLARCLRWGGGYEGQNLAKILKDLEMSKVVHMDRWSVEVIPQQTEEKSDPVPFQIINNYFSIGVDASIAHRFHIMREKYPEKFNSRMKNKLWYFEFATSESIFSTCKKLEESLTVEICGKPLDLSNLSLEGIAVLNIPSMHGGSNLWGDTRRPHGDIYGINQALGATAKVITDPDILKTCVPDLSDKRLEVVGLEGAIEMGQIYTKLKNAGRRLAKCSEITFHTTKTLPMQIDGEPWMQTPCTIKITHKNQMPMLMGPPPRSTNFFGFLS
Method in brief: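 Full-length human DGKα (4 nM) or DGKζ (2 nM) from Sf21 cells, with DLG substrate at 125 uM in PS/PC liposomes and ATP at 25 μM (α) or 50 μM (ζ); 1 h reaction. ADP formed read by ADP-Glo luminescence; compounds 11-point, 1:3 dilutions from 10 mM, 2% DMSO final.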

| IC50 (DGKzeta) | IC50 (DGKalpha) | Structure (SMILES) | Emax (primary human T-cells; Homo sapiens, T-cell, 120 h) | EC50 (primary human T-cells; Homo sapiens, T-cell, 120 h) | Emax proliferation (% activation) (primary human T-cells) | EC50 (primary human T-cells) |
| --- | --- | --- | --- | --- | --- | --- |
| 1.46 µM | 11.1 µM | COc1ccc(-c2ccc(CN3C(=O)[C@@H](N)CS(=O)(=O)c4ccc(-c5nnc(C(C)(C)S(C)(=O)=O)o5)cc43)cc2)c(C)c1 [Example 49, (3R)-3-amino-5-[[4-(4-methoxy-2-methyl-phenyl)phenyl]methyl]-7-[5-(1-methyl-1-methylsulfonyl-ethyl)-1,3,4-oxadiazol-2-yl]-1,1-dioxo-2,3-dihydro-1λ6,5-benzothiazepin-4-one] | 111% | 3.13 µM | – | – |
| 0.377 µM | 2.11 µM | COc1ccc(-c2ccc(CN3C(=O)[C@@H](N)CS(=O)(=O)c4cc(F)c(-c5noc(C(C)(C)S(C)(=O)=O)n5)cc43)cc2)cc1 [Example 50, (3R)-3-amino-8-fluoro-5-[[4-(4-methoxyphenyl)phenyl]methyl]-7-[5-(1-methyl-1-methylsulfonyl-ethyl)-1,2,4-oxadiazol-3-yl]-1,1-dioxo-2,3-dihydro-1λ6,5-benzothiazepin-4-one] | 293% | 0.757 µM | – | – |
| 0.371 µM | 2.29 µM | CC(C)(c1nc(-c2cc3c(cc2F)[S+]([O-])C[C@H](N)C(=O)N3Cc2ccc(Oc3ccccc3)cc2)no1)S(C)(=O)=O (stereo partly drawn) [Example 51, (3R)-3-amino-8-fluoro-7-[5-(1-methyl-1-methylsulfonyl-ethyl)-1,2,4-oxadiazol-3-yl]-1-oxo-5-[(4-phenoxyphenyl)methyl]-2,3-dihydro-1λ4,5-benzothiazepin-4-one] | – | – | 67% | > 10 µM |
| 0.419 µM | 1.55 µM | CC(C)(c1nc(-c2cc3c(cc2F)[S+]([O-])C[C@H](N)C(=O)N3Cc2ccc(Oc3ccccc3)cc2)no1)S(C)(=O)=O (stereo partly drawn) [Example 52, (3R)-3-amino-8-fluoro-7-[5-(1-methyl-1-methylsulfonyl-ethyl)-1,2,4-oxadiazol-3-yl]-1-oxo-5-[(4-phenoxyphenyl)methyl]-2,3-dihydro-1λ4,5-benzothiazepin-4-one] | – | – | 181% | 0.978 µM |
| 0.603 µM | 1.17 µM | CS(=O)(=O)Cn1nnc(-c2cc3c(cc2F)S(=O)(=O)C[C@H](N)C(=O)N3Cc2ccc(Oc3ccccc3)cc2)n1 [Example 54, (3R)-3-amino-8-fluoro-7-[2-(methylsulfonylmethyl)tetrazol-5-yl]-1,1-dioxo-5-[(4-phenoxyphenyl)methyl]-2,3-dihydro-1λ6,5-benzothiazepin-4-one] | 310% | 1.54 µM | – | – |
| 6.64 µM | 18.3 µM | CS(=O)(=O)Cn1nnnc1-c1cc2c(cc1F)S(=O)(=O)C[C@H](N)C(=O)N2Cc1ccc(Oc2ccccc2)cc1 [Example 55, (3R)-3-amino-8-fluoro-7-[1-(methylsulfonyl-methyl)tetrazol-5-yl]-1,1-dioxo-5-[(4-phenoxyphenyl)methyl]-2,3-dihydro-1λ6,5-benzothiazepin-4-one] | 310% | 1.15 µM | – | – |
| 8.88 µM | 10.1 µM | CC(C)(c1nnc(-c2ccc3c(c2)N(Cc2ccc(-c4ccc(C(F)(F)F)cc4)cc2)C(=O)[C@@H](N)CS3(=O)=O)o1)S(C)(=O)=O [Example 56, (3R)-3-amino-7-[5-(1-methyl-1-methylsulfonyl-ethyl)-1,3,4-oxadiazol-2-yl]-1,1-dioxo-5-[[4-[4-(trifluoromethyl)phenyl]phenyl]methyl]-2,3-dihydro-1λ6,5-benzothiazepin-4-one] | 137% | 0.636 µM | – | – |
| 8.95 µM | 27.2 µM | CC(C)(c1nnc(-c2ccc3c(c2)N(Cc2ccc(-c4ccc(C(F)(F)F)cc4)nc2)C(=O)[C@@H](N)CS3(=O)=O)o1)S(C)(=O)=O [Example 57, (3R)-3-amino-7-[5-(1-methyl-1-methylsulfonyl-ethyl)-1,3,4-oxadiazol-2-yl]-1,1-dioxo-5-[[6-[4-(trifluoromethyl)phenyl]-3-pyridyl]methyl]-2,3-dihydro-1λ6,5-benzothiazepin-4-one] | 65% | 1.11 µM | – | – |
